Results: patent US4855290A (priority 1985, dated 1989)
Several values for one entry are separate records, joined by “and”; a condition that tells them apart may be missing. Equal entries are not always repeated. Entries after “also recorded” stand apart in the source; their conditions may differ. Where two headings read alike, the source gives them in different places.

Tests used:
[1] = Signs observed in rats after oral dose of 100 mg./kg.; assay type: in vivo; details: 100 mg./kg. oral
in vivo [2] = details: mouse, po
[3] = target: central muscarinic receptors (M1) (Rattus norvegicus, UniProt P08482); test: biochemical; assay type: binding; design: IC50^1 :IC50^2: unit not given beside the values
[4] = target: central muscarinic receptors (M1 and M2); assay type: binding, rat
Guinea-pig ileum [5] = test: Guinea-pig ileum induced contractions; details: ileum contraction
Guinea-pig ileum [6] = test: Guinea-pig ileum induced contractions; details: for Type of activity: guinea-pig ileum; for IC50: inhibiting acetylcholine-induced contractions of the ileum
Description: Guinea-pig ileum induced contractions
*This dose is the IC50 for inhibiting acetylcholineinduced
contractions of the ileum.

[7] = not given; remark: listed apart in the source
in vivo [8] = details: mouse, iv
[9] = Hypothermia-inducing activity in rats; details: AF102B at 80 mg./kg. p.o. and 60 mg./kg. i.p., oxotremorine 3.2 mg./kg. p.o. or 1.2 mg./kg. i.p.
[10] = design: species or system Male Sprague-Dawley rats; details: rat, in vivo
[11] = Morris Swimming Maze in AF64A- and CSF-injected rats; assay type: in vivo, male Sprague Dawley rats; details: AF102B 1 mg./kg., ip, physostigmine 0.1 mg./kg.
Experimental: 38 male Sprague Dawley rats (raised by Charles River) 5-6 months old with an average weight of 500 g. were used. The rats were housed in groups of 5 and were given free access to food and water. Testing was carried out in a round white metal tub 1.4 m. diameter and 0.4 m. deep. The tub was filled with water, made opaque by milk powder to the level of 18 cm. A platform of 12 cm. diameter and at a height of 16 cm. was placed in the tub 2 cm. below water level. The platform was covered with gauze to prevent the animal from slipping back into the water after reaching the platform.
Prior to testing, the rat was placed on the platform for 120 secs., placed gently into the water, facing the wall of the pool, at one of four starting locations (north, south, east or west) around the pool's perimeter. Within each block of four trials, each rat was started at each of the four starting locations, with the sequence of starting locations randomly selected. Testing was carried out on 2 consecutive days with each rat submitted daily to eight trials. During trials 1-12 the platform was located in the center of the south-east quadrant and during trials 13-16 the platform was transferred to the center of the north-west quadrant. If in a particular trial the rat found the platform, it was permitted to remain on it for 60 secs. before starting the next trial. […] The latency to find the platform was measured.
For drug testing, rats were injected with AF64A or CSF (3 nmole/2 ul/side) as described in Experiment 2, above. The rats were subjected first to a step-through learning procedure (see Experiment 1, above) and were 3-3.5 months after injection when tested in the water maze. The rats were divided into 4 groups; 18 CSF-injected rats were treated either with physostigmine (0.1 mg./kg. ip) (10 rats) or with saline (8 rats). 20 AF64A-injected rats were divided similarly. The rats were injected with physostigmine immediately before testing on each day.
Forty male Sprague-Dawley rats (obtained from Charles River Breeding Laboratories U.K.), 5-6 months old, weighing 450-580 g. during the experiment served as subjects. Rats were housed in groups of 5 and were given free access to food and water. 2.5-3.5 months before behavioral testing, rats were injected with AF64A (3 nmole/2 ul/side) (20 rats-group 1) or CSF (20 rats-group 2) as described in the surgery procedure.
Each of the injected groups was randomly subdivided into two equal size treatment groups.

[12] = LD50 of physostigmine (relative toxicity in rats); details: rat, in vivo, ip

central muscarinic receptors (M1), sequence (P08482 whole entry): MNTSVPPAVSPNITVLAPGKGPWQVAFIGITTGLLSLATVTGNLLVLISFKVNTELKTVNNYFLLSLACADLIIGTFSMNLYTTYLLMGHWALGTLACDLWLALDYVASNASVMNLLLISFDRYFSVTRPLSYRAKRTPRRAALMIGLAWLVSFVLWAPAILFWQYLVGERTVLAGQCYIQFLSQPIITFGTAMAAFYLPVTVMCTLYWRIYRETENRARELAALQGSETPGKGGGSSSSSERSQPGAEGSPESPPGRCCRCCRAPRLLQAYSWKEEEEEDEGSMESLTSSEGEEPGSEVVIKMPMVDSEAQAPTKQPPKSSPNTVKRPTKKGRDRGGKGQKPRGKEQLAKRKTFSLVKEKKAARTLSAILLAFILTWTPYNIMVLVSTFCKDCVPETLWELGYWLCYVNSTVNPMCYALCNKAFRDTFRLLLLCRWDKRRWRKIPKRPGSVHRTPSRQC

With `C[C@@H]1O[C@]2(CS1)CN1CCC2CC1` (relative stereo) [AF102A] the “Signs observed in rats” value [1] was “spontaneous motor activity was slightly reduced; also recorded: mydriasis, with pupillary size being about three times that seen in controls; also recorded: sudden onset of a brief clonic convulsive seizure which 5 mins. later changed into periodic head twitching and tremors; also recorded: animals appeared somnolent, accompanied by partial loss of righting reflex, dyspnoeic and cyanotic, with very slight salivation and lachrymation; also recorded: full recovery occurred after several hours”, the mortality in rats [1] was “one animal, out of the group of three, which was found dead” and the time found dead ([1]; post-administration) was 40 min. For the same molecule, the LD50 (in vivo [2]) was 102 mg/kg, the IC50 [3] was 30000 nM and the “IC50^1 :IC50^2” value ([3]; PNZ:QNB displacement ratio) was 0.43. For the same molecule, the Mortality (mice, 36.0 mg./kg. i.v.) was 2/6, the Mortality (mice, 37.9 mg./kg. i.v.) was 3/6 and the Mortality (mice, 40.0 mg./kg. i.v.) was 2/6. For the same molecule, the Mortality (mice, 42.5 mg./kg. i.v.) was 4/6, the Mortality (mice, 45.0 mg./kg. i.v.) was 6/6 and the “time of death after intravenous injection” value (mice, approximate LD50 doses, iv) was “about 30 secs”. For the same molecule, the “onset of severe tremors after intravenous administration” value (mouse, in vivo, iv) was 10 s, the IC50 ([4]; read-out: IC50^2 for displacement of [^3 H]-QNB) was 70000 nM and the EC50 (Guinea-pig ileum [5]) was greater than 10000 nM. For the same molecule, the “muscarinic agonist activity (TABLES 1 and 2)” value (Guinea-pig ileum [6]; binding and ileum) was “almost one order of magnitude less active”, the Type of activity (Guinea-pig ileum [6]) was “agonist” and the Mortality ([7]; mice, 78 mg./kg. per os) was 0/5. For the same molecule, the Mortality ([7]; mice, 90 mg./kg. per os) was 2/5, the Mortality ([7]; mice, 104 mg./kg. per os) was 2/5 and the Mortality ([7]; mice, 120 mg./kg. per os) was 4/5. For the same molecule, the Mortality ([7]; mice, 139 mg./kg. per os) was 5/5, the Mortality ([7]; mice, 160 mg./kg. per os) was 5/5 and the “time of death after oral administration” value ([7]; mice, approximate LD50 doses, oral) was 10 to 15 min. The “absorption by the enteric route” value ([7]; mice, inferred from i.v./oral LD50 ratio) was “efficient, rapid and apparently unaltered absorption”, the “effects considered characteristic of parasympatho- or cholinomimetic activity” value ([7]; mouse, in vivo) was “none of the test animals exhibited effects considered characteristic of parasympatho- or cholinomimetic activity” and the “onset of severe tremors after oral administration” value ([7]; mouse, in vivo, po) was 2 to 3 min. It also gave an LD50 (in vivo [8]) of 40.4 mg/kg.

For `C[C@@H]1OCC2(CN3CCC2CC3)O1` (stereo in doubt) [AF30, cis-2-methylspiro(1,3-dioxolane-4,3')quinuclidine, reference compound], the EC50 (Guinea-pig ileum [5]) was 4000 nM, the Type of activity (Guinea-pig ileum [6]) was “agonist” and the “effects considered characteristic of parasympatho- or cholinomimetic activity” value ([7]; mice, oral or iv, tremors, salivation, lachrymation, diarrhoea, miosis) was “did exhibit such side effects”.

With `c1ccc(C(c2ccccc2)C2OC3(CS2)CN2CCC3CC2)cc1` (stereo not drawn) [(Ib), 2-diphenylmethylspiro(1,3-oxathiolane-5,3')quinuclidine] the Type of activity (Guinea-pig ileum [6]) was “antagonist” and the IC50 (Guinea-pig ileum [6]) was 20 nM.

In the case of `CC1(c2ccccc2)OC2(CS1)CN1CCC2CC1` (stereo not drawn) [(Ic), 2-methyl-2-phenylspiro(1,3-oxathiolane-5,3')quinuclidine], the Type of activity (Guinea-pig ileum [6]) is reported as “antagonist” and the IC50 (Guinea-pig ileum [6]) is reported as 2000 nM.

For `O=C1CCCN1CC#CCN1CCCC1` [oxotremorine, reference compound], the cholinomimetic manifestation [9] was “full cholinomimetic syndrome associated with tonic-clonic convulsions”, the EC50 [3] was 800 nM and the IC50 [3] was 800 nM. For the same molecule, the “IC50^1 :IC50^2” value [3] was 0.27 and the EC50 ([4]; summary table, read-out: EC50, [^3 H]--QNB-binding) was 3000 nM.

With `CNC(=O)Oc1ccc2c(c1)[C@]1(C)CCN(C)[C@@H]1N2C` [physostigmine, reference compound] the Initial-test latency [10] was 25.50 ± 5.68 s and 29.70 ± 7.93 s, the “reversal of AF64A-induced memory impairments in passive avoidance” value [10] was “could be reversed” and the Retention-test latency ([10]; ip) was 458.90 ± 63.33 s and 576.10 ± 22.69 s. The Therapeutic index ([10]; ip) was 5-17 and 10-17, the “retention of passive avoidance (statistics)” value ([10]; ip) was “significantly longer, F(1,36)=5.91, p=0.05; also recorded: significantly improved; also recorded: the retention of the CSF-injected group was not affected” and the “effect in Morris Swimming Maze” value [11] was “negative effect; also recorded: inhibited the decrease of the escape-latency curve”. The “effect in Morris Swimming Maze” value ([11]; listed as Physostigmine) was “worsens; also recorded: apparently impaired the performance of both AF64A and CSF-injected groups” and the LD50 [12] was 1 to 2 mg/kg.
